# Measured values reported in ChEMBL document CHEMBL2429832, “N-substituted 8-aminopentacyclo[5.4.0.0(2,6).0(3,10).0(5,9)]undecanes as σ receptor ligands with potential neuroprotective effects” (Bioorg Med Chem, 2013).
# How the values were obtained:
# [1] = target: 5-hydroxytryptamine receptor 2B (Homo sapiens, UniProt P41595); experiment: Inhibition of 5-HT2B receptor (unknown origin) at 10 uM by PDSP assay relative to control
# [2] = target: Histamine H4 receptor (Homo sapiens, UniProt Q9H3N8); experiment: Inhibition of histamine H4 receptor (unknown origin) at 10 uM by PDSP assay relative to control
# [3] = tested on: PC-12; experiment: Selectivity ratio of Ki for sigma-1 receptor in rat brain homogenates to Ki for sigma-2 receptor in rat PC12 cells; type: cell-based
# [4] = target: T1, Alpha-1D adrenergic receptor (Homo sapiens) (UniProt P25100); experiment: Inhibition of adrenergic alpha1D receptor (unknown origin) at 10 uM by PDSP assay relative to control
# T1 sequence (whole entry): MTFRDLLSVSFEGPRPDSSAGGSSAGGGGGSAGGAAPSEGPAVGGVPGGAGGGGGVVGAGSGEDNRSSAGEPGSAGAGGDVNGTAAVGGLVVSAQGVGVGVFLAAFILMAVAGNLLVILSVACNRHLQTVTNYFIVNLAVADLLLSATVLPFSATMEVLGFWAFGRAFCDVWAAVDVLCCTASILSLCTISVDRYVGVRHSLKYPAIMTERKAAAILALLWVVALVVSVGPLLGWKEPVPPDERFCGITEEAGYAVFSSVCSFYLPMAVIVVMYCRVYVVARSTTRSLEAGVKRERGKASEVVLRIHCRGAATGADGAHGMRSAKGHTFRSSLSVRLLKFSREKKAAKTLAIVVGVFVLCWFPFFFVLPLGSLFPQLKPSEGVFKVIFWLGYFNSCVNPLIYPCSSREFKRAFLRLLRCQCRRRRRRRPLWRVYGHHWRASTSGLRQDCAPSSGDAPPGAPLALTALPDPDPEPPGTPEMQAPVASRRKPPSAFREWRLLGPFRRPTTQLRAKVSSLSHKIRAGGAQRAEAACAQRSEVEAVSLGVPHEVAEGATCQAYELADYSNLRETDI
# [5] = target: 5-hydroxytryptamine receptor 7 (Homo sapiens, UniProt P34969); experiment: Inhibition of 5-HT7 receptor (unknown origin) at 10 uM by PDSP assay relative to control
# [6] = target: Mu-type opioid receptor (Homo sapiens, UniProt P35372); experiment: Inhibition of mu opioid receptor (unknown origin) at 10 uM by PDSP assay relative to control
# [7] = target: Sodium-dependent noradrenaline transporter (Homo sapiens, UniProt P23975); experiment: Displacement of [3H]-nisoxetine from human NET expressed in HEK cell membranes at 10 uM relative to control; conditions: HEK293
# [8] = target: Delta-type opioid receptor (Homo sapiens, UniProt P41143); experiment: Inhibition of delta opioid receptor (unknown origin) at 10 uM by PDSP assay relative to control
# [9] = target: Histamine H3 receptor (Homo sapiens, UniProt Q9Y5N1); experiment: Inhibition of histamine H3 receptor (unknown origin) at 10 uM by PDSP assay relative to control
# [10] = target: Sigma non-opioid intracellular receptor 1 (Rattus norvegicus, UniProt Q9R0C9); experiment: Displacement of [3H](+)-pentazocine from sigma-1 receptor in rat brain homogenates; type: tissue-based
# [11] = target: 5-hydroxytryptamine receptor 1E (Homo sapiens) (UniProt P28566); experiment: Inhibition of 5-HT1E receptor (unknown origin) at 10 uM by PDSP assay relative to control
# [12] = target: 5-hydroxytryptamine receptor 1D (Homo sapiens) (UniProt P28221); experiment: Inhibition of 5-HT1D receptor (unknown origin) at 10 uM by PDSP assay relative to control
# [13] = target: Beta-3 adrenergic receptor (Homo sapiens) (UniProt P13945); experiment: Inhibition of adrenergic beta3 receptor (unknown origin) at 10 uM by PDSP assay relative to control
# [14] = target: 5-hydroxytryptamine receptor 1B (Homo sapiens, UniProt P28222); experiment: Inhibition of 5-HT1B receptor (unknown origin) at 10 uM by PDSP assay relative to control
# [15] = target: T2, 5-hydroxytryptamine receptor 3A (Homo sapiens) (UniProt P46098); experiment: Inhibition of 5-HT3 receptor (unknown origin) at 10 uM by PDSP assay relative to control
# T2 sequence (whole entry): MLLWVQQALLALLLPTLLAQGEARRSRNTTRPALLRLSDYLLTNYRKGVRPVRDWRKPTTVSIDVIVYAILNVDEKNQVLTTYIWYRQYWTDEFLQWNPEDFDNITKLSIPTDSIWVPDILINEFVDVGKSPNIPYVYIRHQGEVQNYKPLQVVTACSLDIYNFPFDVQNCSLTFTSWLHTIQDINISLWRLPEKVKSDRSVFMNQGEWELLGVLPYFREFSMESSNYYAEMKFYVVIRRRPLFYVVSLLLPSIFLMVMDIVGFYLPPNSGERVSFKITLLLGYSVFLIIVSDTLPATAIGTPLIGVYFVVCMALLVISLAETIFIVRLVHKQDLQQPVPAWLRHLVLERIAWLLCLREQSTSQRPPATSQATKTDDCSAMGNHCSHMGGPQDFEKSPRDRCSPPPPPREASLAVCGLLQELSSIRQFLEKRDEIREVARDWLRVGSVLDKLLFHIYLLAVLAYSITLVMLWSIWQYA
# [16] = target: Beta-1 adrenergic receptor (Homo sapiens) (UniProt P08588); experiment: Inhibition of adrenergic beta1 receptor (unknown origin) at 10 uM by PDSP assay relative to control
# [17] = target: T3, D(4) dopamine receptor (Homo sapiens) (UniProt P21917); experiment: Inhibition of dopamine D4 receptor (unknown origin) at 10 uM by PDSP assay relative to control
# T3 sequence (whole entry): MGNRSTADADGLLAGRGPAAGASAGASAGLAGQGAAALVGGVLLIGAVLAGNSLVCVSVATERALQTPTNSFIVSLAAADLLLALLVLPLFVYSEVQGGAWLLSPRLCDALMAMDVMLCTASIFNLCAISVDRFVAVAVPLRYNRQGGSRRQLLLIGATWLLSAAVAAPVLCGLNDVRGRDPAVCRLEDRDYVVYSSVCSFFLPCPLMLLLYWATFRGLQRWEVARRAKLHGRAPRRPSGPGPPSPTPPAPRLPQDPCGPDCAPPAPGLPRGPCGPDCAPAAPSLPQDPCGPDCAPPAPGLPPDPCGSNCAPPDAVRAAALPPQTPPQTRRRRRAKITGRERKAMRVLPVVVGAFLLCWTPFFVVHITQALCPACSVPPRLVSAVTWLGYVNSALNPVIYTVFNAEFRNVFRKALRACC
# [18] = target: D(1A) dopamine receptor (Homo sapiens) (UniProt P21728); experiment: Inhibition of dopamine D1 receptor (unknown origin) at 10 uM by PDSP assay relative to control
# [19] = Displacement of [3H]-DTG from sigma-2 receptor in rat PC12 cells; type: cell-based; conditions: pc-12
# Sequence of Delta-type opioid receptor (P41143 whole entry): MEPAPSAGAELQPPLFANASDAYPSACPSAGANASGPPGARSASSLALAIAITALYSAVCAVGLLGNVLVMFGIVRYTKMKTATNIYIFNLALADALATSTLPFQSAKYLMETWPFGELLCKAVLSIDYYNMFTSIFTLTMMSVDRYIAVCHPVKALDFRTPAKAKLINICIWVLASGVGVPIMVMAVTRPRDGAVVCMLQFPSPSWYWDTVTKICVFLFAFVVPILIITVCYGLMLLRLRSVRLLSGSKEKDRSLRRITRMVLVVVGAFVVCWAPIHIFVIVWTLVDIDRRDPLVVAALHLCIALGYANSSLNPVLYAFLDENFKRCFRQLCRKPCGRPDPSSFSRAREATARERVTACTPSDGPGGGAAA
# Sequence of 5-hydroxytryptamine receptor 1B (P28222 whole entry): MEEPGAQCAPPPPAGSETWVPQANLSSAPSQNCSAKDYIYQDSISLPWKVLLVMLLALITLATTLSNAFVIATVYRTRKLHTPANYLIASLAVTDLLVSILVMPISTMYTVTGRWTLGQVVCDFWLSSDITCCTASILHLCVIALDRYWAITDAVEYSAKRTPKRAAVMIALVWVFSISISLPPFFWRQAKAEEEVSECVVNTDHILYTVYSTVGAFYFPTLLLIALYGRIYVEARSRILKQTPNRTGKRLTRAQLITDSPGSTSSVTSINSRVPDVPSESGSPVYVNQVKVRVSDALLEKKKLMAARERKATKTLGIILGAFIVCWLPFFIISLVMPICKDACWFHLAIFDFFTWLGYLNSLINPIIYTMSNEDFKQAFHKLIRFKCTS
# Sequence of Beta-1 adrenergic receptor (Homo sapiens) (P08588 whole entry, looked up): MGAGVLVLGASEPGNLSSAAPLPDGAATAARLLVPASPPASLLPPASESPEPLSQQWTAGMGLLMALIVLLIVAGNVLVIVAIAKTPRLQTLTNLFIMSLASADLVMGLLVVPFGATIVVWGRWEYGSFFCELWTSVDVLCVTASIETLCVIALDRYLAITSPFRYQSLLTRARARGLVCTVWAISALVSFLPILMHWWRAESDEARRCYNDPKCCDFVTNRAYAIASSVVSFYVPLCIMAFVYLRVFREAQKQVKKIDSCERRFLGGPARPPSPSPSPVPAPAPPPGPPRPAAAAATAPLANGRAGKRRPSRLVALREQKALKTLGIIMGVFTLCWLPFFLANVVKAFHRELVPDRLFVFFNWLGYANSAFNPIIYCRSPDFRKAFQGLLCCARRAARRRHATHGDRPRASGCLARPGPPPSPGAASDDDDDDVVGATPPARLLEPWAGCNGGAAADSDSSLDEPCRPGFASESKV
# Sequence of Beta-3 adrenergic receptor (Homo sapiens) (P13945 whole entry, looked up): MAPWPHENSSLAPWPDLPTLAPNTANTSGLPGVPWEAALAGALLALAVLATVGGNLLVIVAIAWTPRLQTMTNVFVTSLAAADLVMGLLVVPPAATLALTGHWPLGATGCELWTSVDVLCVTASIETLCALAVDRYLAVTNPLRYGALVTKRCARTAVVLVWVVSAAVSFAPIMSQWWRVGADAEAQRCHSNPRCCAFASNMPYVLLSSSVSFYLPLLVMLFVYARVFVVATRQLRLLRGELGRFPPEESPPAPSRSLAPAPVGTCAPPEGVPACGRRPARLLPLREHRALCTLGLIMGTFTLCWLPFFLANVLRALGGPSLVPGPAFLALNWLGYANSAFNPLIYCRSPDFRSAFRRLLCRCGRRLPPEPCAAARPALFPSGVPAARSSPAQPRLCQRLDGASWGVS
# Sequence of Sigma non-opioid intracellular receptor 1 (Q9R0C9 whole entry): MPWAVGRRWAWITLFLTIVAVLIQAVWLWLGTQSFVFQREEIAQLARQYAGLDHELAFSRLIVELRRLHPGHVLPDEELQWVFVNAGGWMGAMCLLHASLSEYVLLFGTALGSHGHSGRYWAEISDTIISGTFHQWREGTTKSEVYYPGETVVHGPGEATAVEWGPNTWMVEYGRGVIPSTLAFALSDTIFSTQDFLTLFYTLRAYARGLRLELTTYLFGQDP
# Sequence of D(1A) dopamine receptor (Homo sapiens) (P21728 whole entry): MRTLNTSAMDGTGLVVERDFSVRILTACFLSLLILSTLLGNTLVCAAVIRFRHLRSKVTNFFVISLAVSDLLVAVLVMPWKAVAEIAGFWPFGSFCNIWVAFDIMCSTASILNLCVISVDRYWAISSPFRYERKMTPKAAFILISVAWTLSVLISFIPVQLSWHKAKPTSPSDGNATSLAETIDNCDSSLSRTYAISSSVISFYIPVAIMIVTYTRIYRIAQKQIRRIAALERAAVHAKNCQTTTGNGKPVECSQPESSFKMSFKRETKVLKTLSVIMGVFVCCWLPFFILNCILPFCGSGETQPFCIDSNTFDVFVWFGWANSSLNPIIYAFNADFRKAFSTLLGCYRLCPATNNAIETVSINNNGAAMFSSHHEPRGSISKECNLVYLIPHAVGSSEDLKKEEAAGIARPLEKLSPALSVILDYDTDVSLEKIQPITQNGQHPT
# Sequence of 5-hydroxytryptamine receptor 7 (P34969 whole entry): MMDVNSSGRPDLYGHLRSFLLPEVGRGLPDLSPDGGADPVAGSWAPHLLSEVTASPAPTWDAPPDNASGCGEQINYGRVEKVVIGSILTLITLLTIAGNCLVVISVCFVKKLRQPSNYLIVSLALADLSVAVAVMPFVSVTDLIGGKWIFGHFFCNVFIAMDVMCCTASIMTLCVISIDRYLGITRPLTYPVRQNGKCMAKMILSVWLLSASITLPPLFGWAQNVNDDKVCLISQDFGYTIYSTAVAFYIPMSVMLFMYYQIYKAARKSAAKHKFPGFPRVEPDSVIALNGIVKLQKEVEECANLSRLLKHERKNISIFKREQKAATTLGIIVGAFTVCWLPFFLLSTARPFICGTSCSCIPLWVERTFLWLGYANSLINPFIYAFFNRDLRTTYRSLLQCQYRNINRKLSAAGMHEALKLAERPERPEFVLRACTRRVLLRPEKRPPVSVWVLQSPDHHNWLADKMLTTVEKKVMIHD
# Sequence of Histamine H3 receptor (Q9Y5N1 whole entry): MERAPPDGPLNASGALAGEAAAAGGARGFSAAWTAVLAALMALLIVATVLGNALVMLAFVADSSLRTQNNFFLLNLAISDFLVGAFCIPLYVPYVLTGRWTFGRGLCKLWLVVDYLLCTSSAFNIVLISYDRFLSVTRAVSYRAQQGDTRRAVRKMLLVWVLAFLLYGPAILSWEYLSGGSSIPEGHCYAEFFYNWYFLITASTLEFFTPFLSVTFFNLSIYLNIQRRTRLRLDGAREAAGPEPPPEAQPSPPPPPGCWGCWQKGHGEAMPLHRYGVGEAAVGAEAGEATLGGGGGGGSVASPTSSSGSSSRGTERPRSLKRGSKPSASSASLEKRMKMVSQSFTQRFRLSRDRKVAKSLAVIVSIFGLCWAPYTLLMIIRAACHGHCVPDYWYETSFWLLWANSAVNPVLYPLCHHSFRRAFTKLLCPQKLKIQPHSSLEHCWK
# Sequence of 5-hydroxytryptamine receptor 2B (P41595 whole entry): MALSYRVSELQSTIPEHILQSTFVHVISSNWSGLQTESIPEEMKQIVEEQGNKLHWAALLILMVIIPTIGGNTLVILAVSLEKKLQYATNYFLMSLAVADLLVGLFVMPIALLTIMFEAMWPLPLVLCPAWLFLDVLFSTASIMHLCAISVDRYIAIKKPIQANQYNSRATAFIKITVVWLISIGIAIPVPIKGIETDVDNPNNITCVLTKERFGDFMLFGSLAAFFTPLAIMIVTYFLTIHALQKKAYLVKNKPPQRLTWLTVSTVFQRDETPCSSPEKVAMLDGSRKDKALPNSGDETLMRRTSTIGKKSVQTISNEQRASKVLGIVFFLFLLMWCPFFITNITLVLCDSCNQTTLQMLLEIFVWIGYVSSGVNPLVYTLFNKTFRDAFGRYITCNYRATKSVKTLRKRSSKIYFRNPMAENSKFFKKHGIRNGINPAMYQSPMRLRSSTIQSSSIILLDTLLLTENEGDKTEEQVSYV
# Sequence of Sodium-dependent noradrenaline transporter (P23975 whole entry): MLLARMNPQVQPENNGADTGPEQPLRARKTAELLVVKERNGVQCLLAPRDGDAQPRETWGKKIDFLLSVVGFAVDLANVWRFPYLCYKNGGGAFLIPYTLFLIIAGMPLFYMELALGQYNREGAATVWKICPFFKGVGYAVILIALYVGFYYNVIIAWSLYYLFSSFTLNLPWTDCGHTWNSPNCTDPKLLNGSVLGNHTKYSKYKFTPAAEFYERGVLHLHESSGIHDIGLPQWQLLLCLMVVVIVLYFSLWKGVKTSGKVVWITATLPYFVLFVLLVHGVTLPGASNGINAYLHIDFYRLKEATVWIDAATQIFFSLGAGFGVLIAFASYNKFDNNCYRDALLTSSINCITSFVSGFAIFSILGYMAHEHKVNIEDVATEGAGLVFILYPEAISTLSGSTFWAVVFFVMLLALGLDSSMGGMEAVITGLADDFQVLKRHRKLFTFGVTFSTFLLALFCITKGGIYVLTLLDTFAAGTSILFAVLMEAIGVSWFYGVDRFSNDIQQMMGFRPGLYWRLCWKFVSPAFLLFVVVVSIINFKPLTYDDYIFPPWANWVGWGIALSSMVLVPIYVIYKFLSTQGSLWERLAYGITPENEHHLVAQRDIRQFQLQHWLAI
# Sequence of 5-hydroxytryptamine receptor 1E (Homo sapiens) (P28566 whole entry): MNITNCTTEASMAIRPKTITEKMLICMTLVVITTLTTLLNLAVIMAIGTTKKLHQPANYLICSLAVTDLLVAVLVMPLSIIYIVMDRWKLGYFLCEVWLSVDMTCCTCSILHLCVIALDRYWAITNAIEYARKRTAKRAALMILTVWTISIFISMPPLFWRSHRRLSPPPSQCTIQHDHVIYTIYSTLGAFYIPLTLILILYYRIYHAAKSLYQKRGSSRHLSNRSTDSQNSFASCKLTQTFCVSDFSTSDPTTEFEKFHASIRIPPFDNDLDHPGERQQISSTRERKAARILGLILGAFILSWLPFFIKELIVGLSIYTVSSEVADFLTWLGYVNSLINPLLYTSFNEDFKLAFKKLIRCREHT
Compound,inhibition [1],inhibition [2],Ratio Ki [3],inhibition [4],inhibition [5],inhibition [6],inhibition [7],inhibition [8],inhibition [9],Ki [10],inhibition [11],inhibition [12],inhibition [13],inhibition [14],inhibition [15],inhibition [16],inhibition [17],inhibition [18],Ki [19]
COc1cc(CN(C)[C@H]2C3C4CC5C6C4CC3C6C52)cc(OC)c1OC (stereo partly drawn),< 50%,< 50%,1.7,< 50%,< 50%,< 50%,< 50%,< 50%,< 50%,1220 nM,< 50%,< 50%,< 50%,< 50%,< 50%,< 50%,< 50%,< 50%,714 nM
c1ccc(CCN[C@H]2C3C4CC5C6C4CC3C6C52)cc1 (stereo partly drawn),< 50%,< 50%,5.3,< 50%,< 50%,< 50%,< 50%,< 50%,< 50%,49 nM,< 50%,< 50%,< 50%,,< 50%,< 50%,,< 50%,9.3 nM
C1C2C3CC4C2C2C1C3[C@H](NCC13C5C6C7C5C1C7C63)C42 (stereo partly drawn),< 50%,< 50%,1.5,< 50%,< 50%,< 50%,< 50%,< 50%,< 50%,3 nM,< 50%,< 50%,< 50%,< 50%,< 50%,< 50%,< 50%,< 50%,2 nM
CN(CC1CCCCC1)[C@H]1C2C3CC4C5C3CC2C5C41 (stereo partly drawn),< 50%,< 50%,1.1,< 50%,< 50%,< 50%,< 50%,< 50%,< 50%,15 nM,< 50%,< 50%,< 50%,< 50%,< 50%,< 50%,< 50%,< 50%,14 nM
CN(CCc1cccc(F)c1)[C@H]1C2C3CC4C2C(=O)C2C4C3C21 (stereo partly drawn),< 50%,< 50%,7.4,< 50%,< 50%,< 50%,< 50%,< 50%,< 50%,405 nM,< 50%,< 50%,< 50%,< 50%,< 50%,< 50%,< 50%,< 50%,55 nM
